Entries after “also recorded” stand apart in the source; their conditions may differ.
Key:
human PBM cells = details: read-out: Cytotoxicity IC50 PBM; uninfected PHA-stimulated human PBM cells
in vitro [1] = details: African green monkey, Vero (African green monkey kidney) cells
in vitro [2] = details: human, uninfected PHA-stimulated human PBM cells
in vitro [3] = details: human
HIV-1/LAI = type: cell-based; details: for EC50: read-out: Anti-HIV-1 activity in human PBM cells EC50, HIV-1/LAI, median effect method; for activity against HIV-1 (in words): human PBM cells
[4] = tested on: Vero (African green monkey kidney) cells; details: read-out: Cytotoxicity IC50 Vero
[5] = tested on: CEM (T-lymphoblastoid cell line)
HIV-1 = details: ref De Corte 2005; Pauwels et al. 1993; cited from earlier work

Structure (SMILES) | IC50 (in vitro [1]) [µM] | IC50 (in vitro [2]) [µM] | IC50 (in vitro [3]) [µM] | further results
Cc1cn([C@H]2C[C@H](N=[N+]=[N-])[C@@H](CO)O2)c(=O)[nH]c1=O [AZT, 3′-Azido-2′,3′-dideoxythymidine, reference compound] | – | – | – | IC50 (human PBM cells): > 100 µM
Cc1ccc(NC(C#N)c2ccc(OCc3ccc(Cl)cc3Cl)cc2)cc1 (stereo not shown) [Compound 2h, 2-[4-(2,4-Dichlorobenzyloxy)phenyl]-2-(4-toluidino)acetonitrile] | 39.7 | 15 | 11.7 | EC50 (HIV-1/LAI): 3.1 µM
Cc1ccc(N2C(=O)CCC2(C#N)c2ccc(OC(C)C)cc2)cc1 (stereo not shown) [Compound 3e, 2-(4-Isopropoxyphenyl)-1-(4-methylphenyl)-5-oxo-2-pyrrolidinecarbonitrile] | 46.5 | > 100 | 17 | –
Cc1ccc(N2C(=O)CCC2(C#N)c2ccc(OCc3ccccc3)cc2)cc1 (stereo not shown) [Compound 3g, 2-(4-Benzyloxyphenyl)-1-(4-methylphenyl)-5-oxo-2-pyrrolidinecarbonitrile] | 53.9 | > 100 | 30.3 | –
Cc1ccc(N2C(=O)CCC2(C#N)c2ccc(OCc3ccc(Cl)cc3Cl)cc2)cc1 (stereo not shown) [Compound 3h, 2-[4-(2,4-Dichlorobenzyloxy)phenyl]-1-(4-methylphenyl)-5-oxo-2-pyrrolidinecarbonitrile] | 21.8 | 9.7 | 6.6 | –
Cc1cc(C)cc(NC(C(N)=O)c2c(Cl)cccc2Cl)c1 (stereo not shown) [Compound 4, 2-(2,6-Dichlorophenyl)-2-(3,5-dimethylanilino)acetamide] | 68.7 | 6.1 | 5.8 | activity against HIV-1 (in words) (HIV-1/LAI): very potent; also recorded: very active
Cc1ccc(N2C(=O)CCC2(CN)c2ccccc2)cc1 (stereo not shown) [Compound 5a, 5-Aminomethyl-1-(4-methylphenyl)-5-phenyl-2-pyrrolidinone] | > 100 | 54.1 | 53.6 | –
Cc1ccc(N2C(=O)CCC2(CN)c2ccc(OCc3ccccc3)cc2)cc1 (stereo not shown) [Compound 5f, 5-Aminomethyl-5-(4-benzyloxyphenyl)-1-(4-methylphenyl)-2-pyrrolidinone] | 12.3 | 15.9 | 33.7 | –
NCC1(c2ccccc2)CCCN1C(=O)c1ccc(Br)cc1 (stereo not shown) [Compound 10] | – | – | – | IC50 (human PBM cells): > 100 µM; IC50 [4]: > 100 µM; activity against HIV-1 (in words) (HIV-1/LAI): no inhibition; EC50 (HIV-1/LAI): > 100 µM; EC90 (HIV-1/LAI; read-out: Anti-HIV-1 activity in human PBM cells EC90, HIV-1/LAI, median effect method): > 100 µM; IC50 [5]: 96.1 µM
CC(=O)c1ccc(C)cc1NC(C(N)=O)c1c(Cl)cccc1Cl (stereo not shown) [loviride] | – | – | – | inhibitory concentration relative to the cytotoxic concentration (fold less) (HIV-1): 10,000 fold

From PMC8301260 (Medicinal chemistry research : an international journal for …, 2016)
